{"source": "patent US4327093A", "about": "“3,7-Disubstituted-2 or 3-cephem-4-carboxylic acid compounds” (Fujisawa Pharmaceutical Co., Ltd., priority 1978, dated 1982)", "key": {"Proteus mirabilis 18": {"tested_on": "Proteus mirabilis 18", "assay": "Minimal inhibitory concentration (MIC) by agar streak, HI-agar, 37° C., 20 hours", "format": "cell-based", "settings": "10^6 viable cells per ml, 37° C. for 20 hours", "protocol": "(§1) One loopful of an overnight culture of each test strain in Trypticase-soy broth (10^6 viable cells per ml.) was streaked on heart infusion agar (HI-agar) containing graded concentrations of antibiotics, and the minimal inhibitory concentration (MIC) was expressed in terms of μg/ml after incubation at 37° C. for 20 hours."}, "Klebsiella pneumoniae 20": {"tested_on": "Klebsiella pneumoniae 20", "assay": "Minimal inhibitory concentration (MIC) by agar streak, HI-agar, 37° C., 20 hours", "format": "cell-based", "settings": "10^6 viable cells per ml, 37° C. for 20 hours", "protocol": "as §1"}}}
{"compound": "CO/N=C(\\C(=O)NC1C(=O)N2C(C(=O)O)=C(COC(=O)N3CCN(C)CC3)CSC12)c1csc(N)n1", "note": "(stereo not shown) [(1)]", "values": [{"measurement": "MIC", "setting": "Proteus mirabilis 18", "result": 0.05, "unit": "µg/mL"}, {"measurement": "MIC", "setting": "Klebsiella pneumoniae 20", "result": 0.1, "unit": "µg/mL"}]}
{"compound": "CO/N=C(\\C(=O)NC1C(=O)N2C(C(=O)O)=C(COC(=O)N3CCN(C)CC3)CSC12)c1nsc(N)n1", "note": "(stereo not shown) [(2)]", "values": [{"measurement": "MIC", "setting": "Proteus mirabilis 18", "result": 0.2, "unit": "µg/mL"}, {"measurement": "MIC", "setting": "Klebsiella pneumoniae 20", "result": 0.05, "unit": "µg/mL"}]}
